The source of these data is BindingDB's records for doi:10.1021/jm00148a012 (1985).

Bounds are passed on as bounds.

The target of the assay is Gamma-aminobutyric acid type B receptor subunit 1/2 (UniProt Q9Z0U4+O88871). Nature of the assay: Displacement of [3H]baclofen from Gamma-aminobutyric acid type B receptor in rat brain membranes. Background: In a radioligand displacement assay an active substance lowers the binding of a labelled ligand.
Sequence of Gamma-aminobutyric acid type B receptor subunit 1/2 (Q9Z0U4 whole entry): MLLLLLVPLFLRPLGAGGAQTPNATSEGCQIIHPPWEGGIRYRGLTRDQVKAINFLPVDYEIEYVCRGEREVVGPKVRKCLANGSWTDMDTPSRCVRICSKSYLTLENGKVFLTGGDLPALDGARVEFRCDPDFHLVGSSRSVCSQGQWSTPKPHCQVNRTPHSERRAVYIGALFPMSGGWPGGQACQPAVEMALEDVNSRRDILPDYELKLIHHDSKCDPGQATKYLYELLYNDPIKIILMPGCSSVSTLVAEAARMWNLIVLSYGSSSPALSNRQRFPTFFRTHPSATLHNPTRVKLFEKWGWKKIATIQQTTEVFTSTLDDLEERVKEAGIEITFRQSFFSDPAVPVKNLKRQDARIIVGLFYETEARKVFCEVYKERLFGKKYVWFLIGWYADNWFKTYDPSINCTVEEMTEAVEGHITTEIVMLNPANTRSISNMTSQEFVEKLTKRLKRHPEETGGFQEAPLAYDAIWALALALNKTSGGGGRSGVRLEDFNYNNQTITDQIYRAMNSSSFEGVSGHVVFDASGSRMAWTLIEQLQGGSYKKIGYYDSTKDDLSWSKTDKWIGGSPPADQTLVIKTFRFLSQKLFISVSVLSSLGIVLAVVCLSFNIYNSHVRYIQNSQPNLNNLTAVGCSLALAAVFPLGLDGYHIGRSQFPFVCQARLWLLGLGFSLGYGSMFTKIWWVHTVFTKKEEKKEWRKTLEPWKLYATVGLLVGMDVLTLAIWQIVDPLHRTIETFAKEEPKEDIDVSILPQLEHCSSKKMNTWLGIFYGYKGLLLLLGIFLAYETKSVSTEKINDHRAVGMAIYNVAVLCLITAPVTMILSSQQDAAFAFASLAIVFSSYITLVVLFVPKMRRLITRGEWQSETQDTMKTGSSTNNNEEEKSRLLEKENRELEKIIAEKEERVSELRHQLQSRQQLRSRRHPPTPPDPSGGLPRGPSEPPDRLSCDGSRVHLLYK
Sequence of Gamma-aminobutyric acid type B receptor subunit 1/2 (O88871 whole entry): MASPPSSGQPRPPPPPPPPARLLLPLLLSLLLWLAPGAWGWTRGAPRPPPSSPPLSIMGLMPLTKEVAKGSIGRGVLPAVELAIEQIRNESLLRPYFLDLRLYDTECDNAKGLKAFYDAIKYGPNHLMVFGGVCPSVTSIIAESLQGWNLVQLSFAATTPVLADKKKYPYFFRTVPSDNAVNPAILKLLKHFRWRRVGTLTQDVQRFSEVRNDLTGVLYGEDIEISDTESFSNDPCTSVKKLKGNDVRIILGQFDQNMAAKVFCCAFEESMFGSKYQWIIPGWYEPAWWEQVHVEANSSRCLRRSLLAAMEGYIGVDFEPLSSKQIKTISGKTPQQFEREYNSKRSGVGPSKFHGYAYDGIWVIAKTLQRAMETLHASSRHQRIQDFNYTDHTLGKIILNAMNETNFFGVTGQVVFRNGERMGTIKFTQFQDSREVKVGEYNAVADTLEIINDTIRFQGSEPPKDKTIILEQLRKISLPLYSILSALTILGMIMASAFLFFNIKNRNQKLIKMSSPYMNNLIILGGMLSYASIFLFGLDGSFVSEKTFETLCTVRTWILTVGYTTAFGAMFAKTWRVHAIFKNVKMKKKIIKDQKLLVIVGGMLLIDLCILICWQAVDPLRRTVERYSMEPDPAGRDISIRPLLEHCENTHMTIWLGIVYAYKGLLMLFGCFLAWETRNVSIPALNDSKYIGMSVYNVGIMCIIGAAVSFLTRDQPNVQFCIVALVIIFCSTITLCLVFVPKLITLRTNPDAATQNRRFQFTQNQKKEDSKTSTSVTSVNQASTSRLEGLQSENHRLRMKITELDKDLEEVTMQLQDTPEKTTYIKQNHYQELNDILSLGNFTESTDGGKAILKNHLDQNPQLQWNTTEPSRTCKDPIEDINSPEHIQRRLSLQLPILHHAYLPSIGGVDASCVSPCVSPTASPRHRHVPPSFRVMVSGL

In the case of `NCC1CC(=O)CC(=O)C1`, the half-inhibitory concentration (IC50) is above 100 µM.

As a reminder, the IC50 is the midpoint of a concentration-inhibition curve. Low readings indicate greater potency, high ones weaker potency.
